Reference: patent US20230141284A1, “CANCER THERAPEUTIC METHOD” (ONO PHARMACEUTICAL CO., LTD., priority 2020, published 2023)
Structures can show the parent of a compound that is named as a salt.

Columns and labels:
[1] = tested on: IRF (Interferon Regulatory Factor) pathway; test: Effect on IRF (Interferon Regulatory Factor) pathway, Quanti-luc reporter cells; format: cell-based; settings: activation of the IRF pathway, luminescence, about 24 hours incubation
Protocol: The cells mainly described at lines 12-20 of the right column on page 183 in Mol Immunol. 2017, Vol. 90, p. 182-189 were suspended in RPMI medium to prepare 2×10^6 cells/mL of cell suspension. 50 μL of the cell suspensions were dispensed into a 96-well plate, to which 50 μL of 6 to 20,000 nmol/L compound solutions were added. After adding the compound, the mixture thereof was incubated at 37° C. for about 24 hours. After incubation, 10 μL of cell suspensions were collected from each well, which were mixed with 50 μL of Quanti-luc (Invivogen). Then, the activation of the IRF pathway was measured by detecting luminescence using a microplate reader (Molecular Devices).

[2] = Conversion of a prodrug to its active body (Compound B) in mouse plasma; format: in vitro ADME; settings: 1 μmol/L, 37° C., 60 minutes
Protocol: (§1) The solutions of the example compounds in Table 2 below (50 μmol/L, 50% acetonitrile with 5% DMSO) were added to plasma (245 μL), respectively, such that the final concentrations thereof become 1 μmol/L. After keeping them the temperature at 37° C. for 60 minutes, 40 μL of the reaction solutions were taken therefrom, and added to 200 μL of acetonitrile/ethanol (7:3) containing Candesartan (internal standard).
(§2) The concentration of the compound prepared in Example 3 (Compound B) in the plasma resulting from the above reaction was analyzed by LC-MS/MS according to the following method.
(§3) The whole amount was transferred to a filter plate for protein removal and filtered by suction, and the filtrate thereof was diluted 2-fold with water. [LC column] Shim-pack XR-ODSII 2.0 mm ID×75 mm (Shimadzu Corporation) [LC condition] Column temperature: 40° C. Mobile phase: A: 0.2% formic acid in 5 mM ammonium acetate solution; and
(§4) [MS conditions] Electrospray, positive mode, multiple reaction monitoring; MS monitor ion: Compound B: m/z353.0→m/z311.2, DP: 80, CE: 35; and Candesartan (internal standard): m/z309.1→m/z163.0, DP: 71, CE: 21.
(§5) A regression formula was calculated from the peak area ratio (peak area of Compound B/peak area of Candesartan) of the real sample and the standard sample for the calibration curve in the same matrix, and the peak area ratio of the real sample was substituted into the regression formula to calculate the quantitative value. 60 minutes later, the concentration of Compound B in the sample was compared, and the conversion rate (%) thereof was calculated using the following formula:
(§6) Conversion rate (%)=Concentration of Compound B in the sample after 60 minutes (μmol/L)×100

[3] = Conversion of a prodrug to its active body (Compound B) in human plasma; format: in vitro ADME; settings: 1 μmol/L, 37° C., 60 minutes
Protocol: as §1, §2, §3, §4, §5, §6

SMILES | EC50 [1] [nM] | Plasma conversion rate Mouse [2] | Plasma conversion rate Human [3]
NC(=O)c1cc(-c2ncc(-c3cn[nH]c3)c3onc(N)c23)c(F)cc1N [Example 4(5), 2-amino-5-(3-amino-7-(1H-pyrazol-4-yl)isoxazolo[4,5-c]pyridin-4-yl)-4-fluorobenzamide hydrochloride] | 80 | – | –
CCOC(=O)c1cc(-c2ncc(-c3cn[nH]c3)c3onc(N)c23)c(F)cc1N [Example 4(6), ethyl 2-amino-5-(3-amino-7-(1H-pyrazol-4-yl)isoxazolo[4,5-c]pyridin-4-yl)-4-fluorobenzoate hydrochloride] | 40 | – | –
CCC(=O)c1cc(-c2ncc(-c3cn[nH]c3)c3onc(N)c23)c(F)cc1N [Example 4(7), 1-(2-amino-5-(3-amino-7-(1H-pyrazol-4-yl)isoxazolo[4,5-c]pyridin-4-yl)-4-fluorophenyl)propan-1-one hydrochloride] | 20 | – | –
CCNC(=O)c1cc(-c2ncc(-c3cn[nH]c3)c3onc(N)c23)c(F)cc1N [Example 4(8), 2-amino-5-(3-amino-7-(1H-pyrazol-4-yl)isoxazolo[4,5-c]pyridin-4-yl)-N-ethyl-4-fluorobenzamide hydrochloride] | 20 | – | –
CNC(=O)c1cc(-c2ncc(-c3cn[nH]c3)c3onc(N)c23)ccc1N [Example 4(15), 2-amino-5-(3-amino-7-(1H-pyrazol-4-yl)isoxazolo[4,5-c]pyridin-4-yl)-N-methylbenzamide hydrochloride] | 100 | – | –
CSc1cc(-c2ncc(-c3cn[nH]c3)c3onc(N)c23)c(Cl)cc1N [Example 4(16), 4-(4-amino-2-chloro-5-(methylthio)phenyl)-7-(1H-pyrazol-4-yl)isoxazolo[4,5-c]pyridin-3-amine hydrochloride] | 1000 | – | –
CSc1cc(-c2ncc(-c3cn[nH]c3)c3onc(N)c23)c(F)cc1N [Example 4, 4-(4-amino-2-fluoro-5-(methylthio)phenyl)-7-(1H-pyrazol-4-yl)isoxazolo[4,5-c]pyridin-3-amine hydrochloride] | 90 | – | –
CC(=O)c1cc(-c2ncc(-c3cnn(COC(=O)N(C)c4ncccc4COP(=O)(O)O)c3)c3onc(N)c23)c(F)cc1N [Example 12(1), (4-(5-(5-acetyl-4-amino-2-fluorophenyl)-3-aminoisoxazolo[4,5-c]pyridin-7-yl)-1H-pyrazol-1-yl)methyl methyl(3-((phosphonooxy)methyl)pyridin-2-yl)carbamate] | – | + (the conversion rate of each example compound in the table to Compound B is less than 25%) | + +
CNCC(=O)OCc1cccnc1N(C)C(=O)OC(C)n1cc(-c2cnc(-c3cc(C(C)=O)c(N)cc3F)c3c(N)noc23)cn1 (stereo not drawn) [Example 12(2), (2-(((1-(4-(5-(5-acetyl-4-amino-2-fluorophenyl)-3-aminoisoxazolo[4,5-c]pyridin-7-yl)-1H-pyrazol-1-yl)ethoxy)carbonyl)(methyl)amino)pyridin-3-yl)methyl methylglycinate] | – | + + + | + + +
CNCC(=O)OCc1cccnc1N(C)C(=O)OCn1cc(-c2cnc(-c3cc(C(C)=O)c(N)cc3F)c3c(N)noc23)cn1.Cl [Example 12(3), 2-((2-((((4-(4-(5-acetyl-4-amino-2-fluorophenyl)-3-aminoisoxazolo[4,5-c]pyridin-7-yl)-1H-pyrazol-1-yl)methoxy)carbonyl)(methyl)amino)pyridin-3-yl)methoxy)-N-methyl-2-oxoethane-1-ammonium chloride] | – | + + + | + + +
CC(=O)c1cc(-c2ncc(-c3cnn(COC(=O)OCCN4CCOCC4)c3)c3onc(N)c23)c(F)cc1N.Cl [Example 12(4), (4-(4-(5-acetyl-4-amino-2-fluorophenyl)-3-aminoisoxazolo[4,5-c]pyridin-7-yl)-1H-pyrazol-1-yl)methyl (2-morpholinoethyl)carbonate hydrochloride] | – | + + + | + + +
CC(=O)c1cc(-c2ncc(-c3cnn(COC(=O)OC[C@H]4OC(O)[C@H](O)[C@@H](O)[C@@H]4O)c3)c3onc(N)c23)c(F)cc1N (stereo partly drawn) [Example 12(5), (4-(4-(5-acetyl-4-amino-2-fluorophenyl)-3-aminoisoxazolo[4,5-c]pyridin-7-yl)-1H-pyrazol-1-yl)methyl (((2R,3S,4S,5R)-3,4,5,6-tetrahydroxytetrahydro-2H-pyran-2-yl)methyl) carbonate] | – | + + + | + + +
CC(=O)c1cc(-c2ncc(-c3cnn(COC(=O)OC[C@H]4OC(O)[C@H](N)[C@@H](O)[C@@H]4O)c3)c3onc(N)c23)c(F)cc1N.Cl (stereo partly drawn) [Example 12(6), (4-(4-(5-acetyl-4-amino-2-fluorophenyl)-3-aminoisoxazolo[4,5-c]pyridin-7-yl)-1H-pyrazol-1-yl)methyl (((2R,3S,4R,5R)-5-amino-3,4,6-trihydroxytetrahydro-2H-pyran-2-yl)methyl) carbonate hydrochloride] | – | + + + | + + +
CC(=O)c1cc(-c2ncc(-c3cnn(C(=O)NCC(=O)O)c3)c3onc(N)c23)c(F)cc1N [Example 12(9), (4-(4-(5-acetyl-4-amino-2-fluorophenyl)-3-aminoisoxazolo[4,5-c]pyridin-7-yl)-1H-pyrazole-1-carbonyl)glycine] | – | + (the conversion rate of each example compound in the table to Compound B is less than 25%) | + (the conversion rate of each example compound in the table to Compound B is less than 25%)
COC(=O)n1cc(-c2cnc(-c3cc(C(C)=O)c(N)cc3F)c3c(N)noc23)cn1 [Example 12(10), methyl 4-(4-(5-acetyl-4-amino-2-fluorophenyl)-3-aminoisoxazolo[4,5-c]pyridin-7-yl)-1H-pyrazole-1-carboxylate] | – | + + + | + + +
CC(=O)c1cc(-c2ncc(-c3cnn(COP(=O)(O)OCOC(=O)OC(C)C)c3)c3onc(N)c23)c(F)cc1N [Example 12(11), ((((4-(4-(5-acetyl-4-amino-2-fluorophenyl)-3-aminoisoxazolo[4,5-c]pyridin-7-yl)-1H-pyrazol-1-yl)methoxy)(hydroxy)phosphoryl)oxy)methyl isopropyl carbonate] | – | + (the conversion rate of each example compound in the table to Compound B is less than 25%) | + (the conversion rate of each example compound in the table to Compound B is less than 25%)
CC(=O)c1cc(-c2ncc(-c3cnn(COC(=O)N4CCC(N5CCCCC5)CC4)c3)c3onc(N)c23)c(F)cc1N [Example 12, (4-(4-(5-acetyl-4-amino-2-fluorophenyl)-3-aminoisoxazolo[4,5-c]pyridin-7-yl)-1H-pyrazol-1-yl)methyl [1,4′-bipiperidine]-1′-carboxylate] | – | + (the conversion rate of each example compound in the table to Compound B is less than 25%) | + (the conversion rate of each example compound in the table to Compound B is less than 25%)
